Data published in ChEMBL document CHEMBL1154799, “Asymmetrically substituted cationic indole- and fluorene porphyrins inhibit tumor proliferation in small intestinal neuroendocrine tumors and medullary thyroid carcinomas” (Eur J Med Chem, 2010).
Calls of active or inactive are those of the source. The rule behind the calls is not given here.

Legend:
[1] = Cytotoxicity against human MTC-SK cells assessed as induction of protease activity at 10 uM after 72 hrs by luminescence based assay; format: functional
KRJ-I [2] = test: Cytotoxicity against human KRJ-I cells assessed as induction of protease activity at 10 uM after 72 hrs by luminescence based assay; format: functional, cell-based
MTC-SK [3] = test: Antiproliferative activity against human MTC-SK cells at 10 uM after 72 hrs by WST-1 assay; format: functional, cell-based
[4] = Cytotoxicity against human HF-SAR cells assessed as decrease in cell viability at 10 uM after 72 hrs by WST-1 assay; format: cell-based
Nucleic Acid [5] = test: Binding affinity to oligonucleotide d(CGTACG)2 by DNA intercalation assay; format: nucleic-acid assay
[6] = (§1) Cytotoxicity against human KRJ-I cells assessed as decrease in cell viability after 72 hrs by WST-1 assay; format: functional, cell-based
KRJ-I [7] = test: as §1; format: functional, cell-based
[8] = (§2) Cytotoxicity against human KRJ-I cells assessed as decrease in cell viability at 10 uM after 72 hrs by WST-1 assay; format: functional
KRJ-I [9] = test: as §2; format: functional
MTC-SK [10] = test: (§3) Antiproliferative activity against human MTC-SK cells after 72 hrs by WST-1 assay; format: functional, cell-based
[11] = as §3; format: functional, cell-based
[12] = Antiproliferative activity against human HF-SAR cells at 10 uM after 72 hrs by WST-1 assay; format: cell-based
Nucleic Acid [13] = test: Binding affinity to calf thymus DNA assessed as change in melting temperature; format: nucleic-acid assay; conditions: Bos taurus
MTC-SK [14] = test: (§4) Cytotoxicity against human MTC-SK cells assessed as decrease in cell viability at 10 uM after 72 hrs by WST-1 assay; format: functional
[15] = as §4; format: functional
MTC-SK [16] = test: (§5) Cytotoxicity against human MTC-SK cells assessed as decrease in cell viability after 72 hrs by WST-1 assay; format: functional, cell-based
[17] = as §5; format: functional, cell-based
KRJ-I [18] = test: Antiproliferative activity against human KRJ-I cells at 10 uM after 72 hrs by WST-1 assay; format: functional, cell-based
[19] = (§6) Antiproliferative activity against human KRJ-I cells after 72 hrs by WST-1 assay; format: functional, cell-based
KRJ-I [20] = test: as §6; format: functional, cell-based

SMILES | Activity [1] | Activity (KRJ-I [2]) | Activity (MTC-SK [3]) | Activity [4] | Activity (Nucleic Acid [5]) | IC50 [6] | Activity (KRJ-I [7]) | Activity [8] | Activity (KRJ-I [9]) | Activity (MTC-SK [10]) | IC50 [11] | Activity [12] | Activity (Nucleic Acid [13]) | Activity (MTC-SK [14]) | Activity [15] | Activity (MTC-SK [16]) | IC50 [17] | Activity (KRJ-I [18]) | IC50 [19] | Activity (KRJ-I [20])
C[n+]1ccc(-c2c3nc(c(-c4cc(-c5ccc6c(c5)C(C)(C)c5ccccc5-6)c[n+](C)c4)c4ccc([nH]4)c(-c4cc[n+](C)cc4)c4nc(c(-c5cc(-c6ccc7c(c6)C(C)(C)c6ccccc6-7)c[n+](C)c5)c5ccc2[nH]5)C=C4)C=C3)cc1.[Cl-].[Cl-].[Cl-].[Cl-] | 46% | inactive | Active | Not Active | Active | 22.7 µM | Dose-dependent effect | 95% | Active | Dose-dependent effect | 22.7 µM | Active | Active | Active | 91% | Dose-dependent effect | 22.7 µM | Active | 22.7 µM | Dose-dependent effect
C[n+]1ccc(-c2c3nc(c(-c4cc[n+](C)cc4)c4ccc([nH]4)c(-c4cc[n+](C)cc4)c4nc(c(-c5ccc(-c6cn(S(=O)(=O)c7ccccc7)c7ccccc67)cc5)c5ccc2[nH]5)C=C4)C=C3)cc1.[Cl-].[Cl-].[Cl-] | 64% | inactive | Active | Not Active | – | 10 µM | Dose-dependent effect | 37% | Active | Dose-dependent effect | 10 µM | Active | Active | Active | 74% | Dose-dependent effect | 10 µM | Active | 10 µM | Dose-dependent effect
C[n+]1ccc(-c2c3nc(c(-c4cc[n+](C)cc4)c4ccc([nH]4)c(-c4cc(-c5ccc6c(c5)C(C)(C)c5ccccc5-6)c[n+](C)c4)c4nc(c(-c5cc[n+](C)cc5)c5ccc2[nH]5)C=C4)C=C3)cc1 | – | – | – | – | Active | – | – | – | – | – | – | – | – | – | – | – | – | – | – | –
